Where “and” joins values, the source holds several entries; their conditions need not be identical. Equal entries are not always repeated. Inconclusive results and toxic doses are left out. Cut-off read from the data, not from the text of the source: active = T/C of 150% or more; inactive = T/C below 125%.
System: L1210 leukemia ip in BDF1 mice, survival T/C
Assay: NCI In Vivo Anticancer Drug Screen. Data for tumor model L1210 Leukemia (intraperitoneal) in B6D2F1 (BDF1) mice
Conditions: endpoint: mean survival time, higher = longer survival
Procedure, shortened: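 Ratio derived from survival: compound-dosed mice over vehicle-dosed mice, all bearing a transplantable tumor.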

[1] = dose: 100.0 mg/kg/injection, schedule: Q01DX001 (ip), vehicle: saline
[2] = dose: 100.0 mg/kg/injection, schedule: Q04DX003 (ip), vehicle: acetone
[3] = dose: 200.0 mg/kg/injection, schedule: Q01DX001 (ip), vehicle: saline
[4] = dose: 200.0 mg/kg/injection, schedule: Q04DX003 (ip), vehicle: acetone
[5] = dose: 400.0 mg/kg/injection, schedule: Q01DX001 (ip), vehicle: saline
[6] = dose: 100.0 mg/kg/injection, schedule: Q04DX003 (ip), vehicle: saline
[7] = dose: 200.0 mg/kg/injection, schedule: Q04DX003 (ip), vehicle: saline
[8] = dose: 100.0 mg/kg/injection, schedule: Q01DX009 (ip), vehicle: Klucel (hydroxypropylcellulose) (HPC)
[9] = dose: 200.0 mg/kg/injection, schedule: Q01DX009 (ip), vehicle: Klucel (hydroxypropylcellulose) (HPC)
[10] = dose: 400.0 mg/kg/injection, schedule: Q01DX009 (ip), vehicle: Klucel (hydroxypropylcellulose) (HPC)
[11] = dose: 100.0 mg/kg/injection, schedule: Q01DX001 (ip), vehicle: Klucel (hydroxypropylcellulose) (HPC)
[12] = dose: 200.0 mg/kg/injection, schedule: Q01DX001 (ip), vehicle: Klucel (hydroxypropylcellulose) (HPC)
[13] = dose: 400.0 mg/kg/injection, schedule: Q01DX001 (ip), vehicle: Klucel (hydroxypropylcellulose) (HPC)
[14] = dose: 100.0 mg/kg/injection, schedule: Q04DX003 (ip), vehicle: Klucel (hydroxypropylcellulose) (HPC)
[15] = dose: 200.0 mg/kg/injection, schedule: Q04DX003 (ip), vehicle: Klucel (hydroxypropylcellulose) (HPC)
[16] = dose: 400.0 mg/kg/injection, schedule: Q04DX003 (ip), vehicle: Klucel (hydroxypropylcellulose) (HPC)
[17] = dose: 50.0 mg/kg/injection, schedule: Q01DX009 (ip), vehicle: Klucel (hydroxypropylcellulose) (HPC)
[18] = dose: 400.0 mg/kg/injection, schedule: Q04DX003 (ip), vehicle: saline
[19] = dose: 100.0 mg/kg/injection, schedule: Q04DX002 (ip), vehicle: saline with Tween-80
[20] = dose: 200.0 mg/kg/injection, schedule: Q04DX002 (ip), vehicle: saline with Tween-80
[21] = dose: 400.0 mg/kg/injection, schedule: Q04DX002 (ip), vehicle: saline with Tween-80

Measured: T/C

CC(=O)OC1=CC2(OC(C)=O)CCC1C1C(=O)OC(=O)C12 (centres undefined)
inactive: [1] 102 % of control | [2] 93 % of control | [3] 91 % of control | [4] 96 % of control | [5] 90 % of control

CC(C)N=Cc1cc(Cl)ccc1O.CC(C)N=Cc1cc(Cl)ccc1O.[Co]
inactive: dose: 50.0 mg/kg/injection, schedule: Q04DX003 (ip), vehicle: saline 94 % of control | [6] 102 % of control | [7] 105 % of control

COc1ccc(C)cc1NC(=O)Nc1cccc(F)c1
inactive: [8] 106 % of control | [9] 111 % of control | [10] 106 % of control

COC(=O)c1cc(C)cc(N(c2ccccc2N)S(=O)(=O)c2ccc(C)cc2)c1C
inactive: [1] 92 % of control | [3] 92 % of control

COC1OC(COC(C)=O)C(OC(C)=O)C(OC(C)=O)[CH]1[Hg][O]C(C)=O (centres undefined)
inactive: dose: 6.25 mg/kg/injection, schedule: Q04DX003 (ip), vehicle: saline 96 % of control | dose: 12.5 mg/kg/injection, schedule: Q04DX003 (ip), vehicle: saline 98 % of control | dose: 25.0 mg/kg/injection, schedule: Q04DX003 (ip), vehicle: saline 92 % of control

COn1c(/C=N/NC(N)=S)ccc1CN1C(=O)c2ccccc2C1=O
inactive: [11] 100 % of control | [12] 97 % of control | [13] 93 % of control

CCCCCCCCCCCCCCCCN(C)c1ccc([N+](=O)[O-])cc1
inactive: [14] 94 % of control | [15] 96 % of control | [16] 96 % of control

O=C(Nc1ccccc1)NC1CCCCC1
inactive: [11] 100 % of control | [12] 95 % of control | [13] 101 % of control

CC(=O)OC1(C(C)=O)CCC2C3CC(C)(O)C4=CC(=O)CCC4(C)C3CCC21C (centres undefined)
inactive: dose: 25.0 mg/kg/injection, schedule: Q01DX009 (ip), vehicle: Klucel (hydroxypropylcellulose) (HPC) 97 % of control | [17] 95 % of control | [8] 103 % of control | [9] 101 % of control

OCN(CO)c1ccc2c(c1)Cc1cc(F)ccc1-2
inactive: [2] 107 % of control | [4] 98 % of control

C[Si](C)(CCl)c1ccccc1
inactive: [6] 107 % of control | [7] 105 % of control | [18] 100 % of control

CC[C@@]1(O)C(=O)OCc2c1cc1n(c2=O)Cc2cc3cc(OC)ccc3nc2-1
inactive: dose: 0.36 mg/kg/injection, schedule: Q01DX001 (ip), vehicle: saline 114 % of control | dose: 0.55 mg/kg/injection, schedule: Q01DX001 (ip), vehicle: saline 122 % of control | dose: 0.83 mg/kg/injection, schedule: Q01DX001 (ip), vehicle: saline 120 % of control | dose: 2.2 mg/kg/injection, schedule: Q01DX009 (ip), vehicle: saline 97 % of control | dose: 15.0 mg/kg/injection, schedule: Q01DX001 (ip), vehicle: saline 122 % of control | dose: 20.0 mg/kg/injection, schedule: Q01DX001 (ip), vehicle: saline 112 % of control | dose: 36.0 micrograms/kg/injection, schedule: Q01DX009 (ip), vehicle: saline 95 % of control | dose: 56.0 micrograms/kg/injection, schedule: Q01DX009 (ip), vehicle: saline 104 % of control | dose: 84.0 micrograms/kg/injection, schedule: Q01DX009 (ip), vehicle: saline 115 % of control | dose: 127.0 micrograms/kg/injection, schedule: Q01DX009 (ip), vehicle: saline 121 % of control | dose: 287.0 micrograms/kg/injection, schedule: Q01DX009 (ip), vehicle: saline 123 % of control | dose: 430.0 micrograms/kg/injection, schedule: Q01DX009 (ip), vehicle: saline 117 % of control
active: dose: 0.97 mg/kg/injection, schedule: Q01DX009 (ip), vehicle: saline 203 % of control | dose: 1.4 mg/kg/injection, schedule: Q01DX009 (ip), vehicle: saline 225 % of control | dose: 2.5 mg/kg/injection, schedule: Q01DX001 (ip), vehicle: saline 162 % of control | dose: 4.4 mg/kg/injection, schedule: Q01DX001 (ip), vehicle: saline 160 % of control | dose: 5.0 mg/kg/injection, schedule: Q01DX001 (ip), vehicle: saline 176 % of control | dose: 6.6 mg/kg/injection, schedule: Q01DX001 (ip), vehicle: saline 178 % of control | dose: 10.0 mg/kg/injection, schedule: Q01DX001 (ip), vehicle: saline 172 % of control and 250 % of control | dose: 646.0 micrograms/kg/injection, schedule: Q01DX009 (ip), vehicle: saline 150 % of control

COc1cc([N+](=O)[O-])c2ncccc2c1
inactive: [17] 102 % of control | [8] 105 % of control | [14] 94 % of control | [9] 104 % of control | [15] 91 % of control | [10] 115 % of control | [16] 104 % of control

[N-]=[N+]=Nc1c(N=[N+]=[N-])c(NS(=O)(=O)c2ccccc2)c2ccccc2c1NS(=O)(=O)c1ccccc1
inactive: [19] 87 % of control | [20] 97 % of control | [21] 97 % of control

COC(=O)c1cc(C)c(C)cc1N
inactive: [1] 102 % of control | [3] 96 % of control | [5] 93 % of control

c1ccc(CC(Cc2ccccc2)CN2CCCC2)cc1
inactive: dose: 100.0 mg/kg/injection, schedule: Q01DX009 (ip), vehicle: saline 94 % of control | [6] 95 % of control | dose: 200.0 mg/kg/injection, schedule: Q01DX009 (ip), vehicle: saline 102 % of control | [7] 94 % of control | dose: 400.0 mg/kg/injection, schedule: Q01DX009 (ip), vehicle: saline 103 % of control | [18] 89 % of control

c1ccc(C(c2ccccc2)c2ccncc2)cc1
inactive: [19] 87 % of control | [20] 90 % of control | [21] 87 % of control

Cc1ccccc1C(Br)C1=CC(C)(C)c2ccccc2C1=O (centres undefined)
inactive: [8] 101 % of control | [14] 97 % of control | [9] 105 % of control | [15] 92 % of control | [10] 95 % of control | [16] 90 % of control

O=S(=O)(Nc1cc(Cl)ccc1Cl)c1ccc(Cl)cc1
inactive: dose: 100.0 mg/kg/injection, schedule: Q01DX009 (ip), vehicle: saline with Tween-80 92 % of control | dose: 200.0 mg/kg/injection, schedule: Q01DX009 (ip), vehicle: saline with Tween-80 102 % of control | dose: 400.0 mg/kg/injection, schedule: Q01DX009 (ip), vehicle: saline with Tween-80 92 % of control

CCCCCc1cc(O)c(CCCC)c(O)c1
inactive: dose: 6.25 mg/kg/injection, schedule: Q04DX002 (ip), vehicle: other 97 % of control | dose: 12.5 mg/kg/injection, schedule: Q04DX002 (ip), vehicle: other 110 % of control | dose: 25.0 mg/kg/injection, schedule: Q04DX002 (ip), vehicle: other 93 % of control | dose: 50.0 mg/kg/injection, schedule: Q04DX002 (ip), vehicle: other 93 % of control

CO/C(Cc1cc(O)cc(O)c1)=N\N
inactive: dose: 100.0 mg/kg/injection, schedule: Q04DX003 (ip), vehicle: saline with Tween-80 93 % of control | dose: 200.0 mg/kg/injection, schedule: Q04DX003 (ip), vehicle: saline with Tween-80 92 % of control | dose: 400.0 mg/kg/injection, schedule: Q04DX003 (ip), vehicle: saline with Tween-80 101 % of control

COc1ccc2c(c1)CCCC2CC(=O)c1ccccc1 (centres undefined)
inactive: dose: 50.0 mg/kg/injection, schedule: Q01DX009 (ip), vehicle: acetone 98 % of control | dose: 100.0 mg/kg/injection, schedule: Q01DX009 (ip), vehicle: acetone 95 % of control | [2] 86 % of control | dose: 198.0 mg/kg/injection, schedule: Q01DX009 (ip), vehicle: other 107 % of control | dose: 200.0 mg/kg/injection, schedule: Q01DX009 (ip), vehicle: acetone 98 % of control | [4] 87 % of control | dose: 300.0 mg/kg/injection, schedule: Q01DX009 (ip), vehicle: other 104 % of control

O=NN(CS(=O)(=O)O)c1ccccc1
inactive: [6] 98 % of control | [7] 103 % of control

CC(=O)c1ccc(S(=O)(=O)Cl)cc1
inactive: dose: 50.0 mg/kg/injection, schedule: Q01DX001 (ip), vehicle: saline 113 % of control | [1] 90 % of control | [3] 104 % of control
